# Measured values published in patent US7033773B1, “Screening assays for G protein coupled receptor agonists and antagonists” (The General Hospital Corporation, priority 1997, dated 2006).
# pKd: −log10 of the molar value. Read-outs that look alike come from different tables or passages of the source. Where a SMILES comes first, the peptide text is derived from it. [ ]: non-standard residue; d: D form. Nle = CCCC[C@H](N)C(=O)O
# How the values were obtained:
# human PTH/PTHrP receptor [1] = test: Cytosolic free calcium (fura-2) in LLC-PK1 cells expressing human PTHR; details: other experiments, hPTHR-expressing LLC-PK1 cells
# Protocol: Cytosolic free calcium was measured in fura 2AM-loaded confluent monolayers of cells.
# Cytosolic free calcium was measured by dual fluorescence in cells loaded with the Ca^2+-sensitive intracellular probe fura-2. Cells were seeded onto glass coverslips at a density of 40,000-600,000/cm^2 and incubated for 2 days as described above. Coverslips were washed twice with PBS before loading in phosphate-free Buffer B containing 4 uM of fura-2/AM (Molecular Probes, Eugene, Oreg.) for 30 min at room temperature (22° C.). After washing twice with fura-free Buffer B, the coverslips were mounted in a cuvette containing 2 ml of phosphate-free Buffer B at 37° C. and the emission at 510 nm in response to alternating excitation at 340 and 380 nm was monitored using a ratiometric PTI Deltascan fluorescence spectrometer with excitation and emission bandwidths of 2 nm. After achieving a stable baseline, agonists were introduced by exchange into 2 ml of fresh buffer to which 10-20 ul of concentrated agonist stock (or vehicle alone) had been added. Peptide stocks were prepared in 0.1% trifluoroacetic acid, ionomycin and phorbol esters were dissolved in dimethyl sulfoxide and all other additives were prepared in water. Maximum and minimum fluorescence signals were obtained by exposure to modified buffers containing 1 uM ionomycin plus 20 mM calcium or 2 mM EGTA in the nominal absence of calcium, respectively, and autofluorescence was estimated from signals obtained in the presence of ionomycin plus 2.5 mM MnCl2.
# human PTH/PTHrP receptor [2] = biological target: T1, human PTH/PTHrP receptor (Homo sapiens, UniProt Q03431); test: Urokinase-type plasminogen activator (u-PA) secretion bioassay in LLC-PK1 cells expressing human PTHR; details: AB45 cells (hPTHR + REV AB dominant-negative PKA inhibitor), 16 hr
# T1 sequence (Q03431 27-593): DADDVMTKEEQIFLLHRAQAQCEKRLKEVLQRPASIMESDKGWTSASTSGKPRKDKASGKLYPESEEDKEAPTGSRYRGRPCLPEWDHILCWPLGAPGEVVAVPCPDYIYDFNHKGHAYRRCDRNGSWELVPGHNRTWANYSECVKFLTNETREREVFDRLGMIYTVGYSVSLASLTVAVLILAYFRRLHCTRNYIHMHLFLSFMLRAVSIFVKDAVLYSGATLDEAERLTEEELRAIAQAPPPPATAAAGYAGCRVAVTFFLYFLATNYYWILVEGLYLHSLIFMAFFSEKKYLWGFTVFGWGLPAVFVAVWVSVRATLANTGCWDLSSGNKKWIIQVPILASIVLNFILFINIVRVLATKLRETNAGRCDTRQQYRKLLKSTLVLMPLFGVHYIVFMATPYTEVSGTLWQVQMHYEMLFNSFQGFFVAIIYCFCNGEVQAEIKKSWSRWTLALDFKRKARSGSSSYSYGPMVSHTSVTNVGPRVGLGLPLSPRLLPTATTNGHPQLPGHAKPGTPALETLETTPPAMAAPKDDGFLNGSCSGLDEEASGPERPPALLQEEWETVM
# Protocol: Cells were seeded into 96-well plates at a density of 6×10^4 cells/well and used the following day. The cells were washed once with 0.2 ml and then refed with 0.1 ml of prewarmed DMEM containing 0.05% BSA. After adding each stimulator, plates were returned to the incubator at 37° C. for 16 h. Conditioned medium (5 ul) then was transferred from each well to a clean microplate. […] Activity was expressed in Ploug units/well, using purified human urokinase (Calbiochem) as a standard.
# Cells were incubated with the indicated peptides (1000 nM) for 16 hr before measurement of secreted u-PA present in the medium, which was expressed as a percentage of the activity measured in vehicle-treated controls. Values shown are means±SEM of triplicate determinations.
# rat PTHR = biological target: T2, rat PTHR (Rattus norvegicus, UniProt P25961); test: Competitive radioligand (Scatchard) binding to rat PTHRs expressed in LLC-PK1 cells; details: Scatchard analysis, read-out: Apparent Kd
# T2 construct: expressed in transfected cells; host or cells: LLC-PK1 porcine renal epithelial cells (EW5; also EW29, AR-C38, AR-B44)
# T2 sequence (P25961 27-591): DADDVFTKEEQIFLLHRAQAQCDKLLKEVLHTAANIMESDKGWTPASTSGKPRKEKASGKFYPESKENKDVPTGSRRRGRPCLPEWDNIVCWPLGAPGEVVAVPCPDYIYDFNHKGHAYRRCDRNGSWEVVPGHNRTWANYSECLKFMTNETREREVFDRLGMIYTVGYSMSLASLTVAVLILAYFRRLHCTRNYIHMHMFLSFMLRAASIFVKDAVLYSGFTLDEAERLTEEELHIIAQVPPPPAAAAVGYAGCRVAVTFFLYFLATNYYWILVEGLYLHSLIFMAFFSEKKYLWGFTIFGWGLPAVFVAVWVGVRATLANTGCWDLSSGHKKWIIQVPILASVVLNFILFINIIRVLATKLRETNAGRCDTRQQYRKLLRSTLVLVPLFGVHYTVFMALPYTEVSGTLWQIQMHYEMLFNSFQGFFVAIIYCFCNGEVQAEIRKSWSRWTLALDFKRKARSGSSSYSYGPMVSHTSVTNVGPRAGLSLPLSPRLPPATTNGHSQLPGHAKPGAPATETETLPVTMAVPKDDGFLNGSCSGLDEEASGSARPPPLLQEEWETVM
# Protocol: (§1) In brief, the cells were seeded into 24-well plates at a density of 2.5×10^5 cells/well and cultured for a further 2 days before study. Cell layers were rinsed with ice-cold Buffer A [50 mM Tris-HCl (pH 7.7), 100 mM NaCl, 2 mM CaCl2, 5 mM KCl, 0.5% FBS, and 5% heat-inactivated horse serum] and then incubated with ^125I-labeled [Nle^8,18, Tyr^34]bovine (b) PTH(1-34) (1×10^5 cpm/well), with or without unlabeled peptide, in 0.5 ml of Buffer A for 6 h in the cold room (2-8° C.). […] All reagents, unless otherwise specified, were obtained from Sigma (St. Louis, Mo.), and all isotopes were purchased from Dupont-New England Nuclear (Boston, Mass.).
# human PTH/PTHrP receptor [3] = biological target: T1, human PTH/PTHrP receptor; test: Competitive radioligand (Scatchard) binding to human PTH/PTHrP receptors stably expressed in LLC-PK1 cells; set-up: transfected with a full-length human PTH/PTHrP receptor cDNA; expressed in transfected cells; details: Scatchard analysis, read-out: Apparent Kd
# Protocol: FIGS. 1A-1B and 1C-1D. Competitive radioligand binding to human PTH/PTHrp receptors stably expressed in LLC-PK1 cells. LLC-PK1 cells stably expressing (FIGS. 1A-1B) 950,000 receptors/cell (HKRK B7) or (FIGS. 1C-1D) 280,000 receptors/cell (HKRK B28) were incubated with ^125I-[Nle^8,18,Tyr^34]bPTH(1-34) in binding buffer for 6 hr at 15° C. in the presence or absence of increasing concentrations of nonradioactive ligand. Scatchard plots are shown in the insets. Each point represents the mean± of triplicate determinations. Total radioligand bound ranged from 15,000-30,000 cpm/well, and nonspecific binding was 2-5% of total binding.
# as §1
# Radioligand competition assays and Scatchard analyses for two representative cell lines, HKRK B7 and HKRK B28, which express 950,000 and 280,000 hPTHRs per cell, respectively, are shown in FIGS. 1A-1D. […] In each case, the Scatchard analysis was linear, consistent with a single class of high affinity binding sites. The subsequent example described below was conducted with two cell lines, which were chosen as representative of those expressing relatively high (HKRK B7) and low (HKRK B28) densities of hPTHRs, respectively.
SMILES,calcium responses to PKA/PKC activators (human PTH/PTHrP receptor [1]),u-PA response in cAMP-resistant cells (in words) (human PTH/PTHrP receptor [2]),"pKd (rat PTHR; EW5 cells, 320 x10^3 rat receptors/cell)","pKd (rat PTHR; EW29 cells, 190 x10^3 rat receptors/cell)","pKd (human PTH/PTHrP receptor [3]; HKRH C58 cells, 1030 x10^3 receptors/cell)","pKd (human PTH/PTHrP receptor [3]; HKRK B5 cells, 840 x10^3 receptors/cell)","pKd (human PTH/PTHrP receptor [3]; HKRK B7 cells, 950 x10^3 receptors/cell)","pKd (human PTH/PTHrP receptor [3]; HKRK B28 cells, 280 x10^3 receptors/cell)","pKd (human PTH/PTHrP receptor [3]; HKRK B54 cells, 1020 x10^3 receptors/cell)","pKd (human PTH/PTHrP receptor [3]; HKRK B57 cells, 900 x10^3 receptors/cell)","pKd (human PTH/PTHrP receptor [3]; HKRK B64 cells, 90 x10^3 receptors/cell)","pKd (human PTH/PTHrP receptor [3]; HKRK C27 cells, 340 x10^3 receptors/cell)","pKd (human PTH/PTHrP receptor [3]; HKRK C30 cells, 600 x10^3 receptors/cell)","pKd (human PTH/PTHrP receptor [3]; HKRK C53 cells, 120 x10^3 receptors/cell)","pKd (human PTH/PTHrP receptor [3]; HKRK C101 cells, 330 x10^3 receptors/cell)"
CCCCCCCCCCCCCC(=O)O[C@@H]1[C@@H](C)[C@@]2(O)[C@@H](C=C(CO)C[C@]3(O)C(=O)C(C)=C[C@@H]23)[C@H]2C(C)(C)[C@]12OC(C)=O [TPA],failed to elicit calcium responses,well-maintained,,,,,,,,,,,,,
"CCCC[C@H](NC(=O)[C@H](CO)NC(=O)[C@H](CO)NC(=O)[C@H](CC(C)C)NC(=O)[C@H](Cc1c[nH]cn1)NC(=O)[C@H](CCCCN)NC(=O)CNC(=O)[C@H](CC(C)C)NC(=O)[C@H](CC(N)=O)NC(=O)[C@H](Cc1c[nH]cn1)NC(=O)[C@H](CCCC)NC(=O)[C@H](Cc1ccccc1)NC(=O)[C@H](CCC(N)=O)NC(=O)[C@@H](NC(=O)[C@H](CCC(=O)O)NC(=O)[C@H](CO)NC(=O)[C@@H](NC(=O)[C@H](C)N)C(C)C)[C@@H](C)CC)C(=O)N[C@@H](CCC(=O)O)C(=O)N[C@@H](CCCNC(=N)N)C(=O)N[C@H](C(=O)N[C@@H](CCC(=O)O)C(=O)N[C@@H](Cc1c[nH]c2ccccc12)C(=O)N[C@@H](CC(C)C)C(=O)N[C@@H](CCCNC(=N)N)C(=O)N[C@@H](CCCCN)C(=O)N[C@@H](CCCCN)C(=O)N[C@@H](CC(C)C)C(=O)N[C@@H](CCC(N)=O)C(=O)N[C@@H](CC(=O)O)C(=O)N[C@H](C(=O)N[C@@H](Cc1c[nH]cn1)C(=O)N[C@@H](CC(N)=O)C(=O)N[C@@H](Cc1ccc(O)cc1)C(N)=O)C(C)C)C(C)C [[Nle^8,18, Tyr^34]bPTH(1-34), [Nle^8,18, Tyr^34]bovine (b) PTH(1-34)] (H-AVSEIQF[Nle]HNLGKHLSS[Nle]ERVEWLRKKLQDVHNY-NH2; N-terminus assumed)",,,8.64,8.60,8.44,8.41,8.35,8.74,8.19,8.25,8.89,8.66,8.55,8.92,8.80
